Where a name gives a salt, the structure may show the parent alone.
Tests used:
[1] = test system: HuH-7 hepatocellular carcinoma cells; assay: Methylene blue staining proliferation assay (MBS); format: cell-based; conditions: Homo sapiens, HuH-7 cells, 72 hours, read-out: HUH7 proliferation (nM) MBS
Experimental: Using a liquid handling device (Velocity 11 Bravo, Agilent), serial 3-fold dilutions of compounds were prepared in DMSO, prediluted in growth medium, followed by transfer of 10 uL/well to the cell plates. […] For data analysis, the assay background was determined in wells containing medium and lysis buffer, but no cells, and the corresponding value subtracted from all data points. […] Compound concentrations leading to half-maximal signal inhibition ([…]) were determined by standard four parametric curve fitting (XLfit 5.4, IDBS). […] Optical density was measured at A650 nm. […]

[2] = test system: HuH-7 hepatocellular carcinoma cells; assay: CellTiter Glo (CTG) proliferation/viability assay; format: cell-based; conditions: Homo sapiens, 72 h, HuH-7 cells, 3 days, GI50, read-out: HUH7 proliferation (nM) CTG
Experimental: CellTiter Glo (CTG) Assay: […] Compound-mediated suppression of cell proliferation/viability is assessed by quantification of cellular ATP levels using the CellTiter-Glo (CTG) reagent (Promega, Cat# G7573). Briefly, cells are seeded at 3'000 cells/well/80 μl fresh medium into tissue-culture-treated 96-well plates (Costar Cat#3904), followed by addition of 20 μl medium containing compound dilutions at 5-fold their final intended concentration. Dose-response effects are assessed by 3-fold serial dilutions of the test compound, starting at 10 μM. Following incubation of the cells for 3 days at 37° C. and 5% CO2, the effect of inhibitors on cell viability is quantified following addition of 50 μl CTG and luminescence measurement (integration time: 500 ms) as per vendor manual, using a correspondingly equipped multi-mode plate reader ([…], TECAN, Switzerland). For data analysis, the assay background value determined in wells containing medium, but no cells, is subtracted from all data points. To enable differentiation of cytotoxic from cytostatic compounds, the number of viable cells is assessed relative to that observed at the time of compound addition using a separate cell plate (day 0). […] Compound concentrations leading to half-maximal growth inhibition (GI50) are determined using standard four parameter curve fitting (XLfit 5.2, IDBS, UK).

[3] = Basic flow energy measurement (FT4 powder rheometer); format: physicochemical; conditions: 25 mm vessel, 23.5 mm blade
Experimental: Basic flow energy (BFE) is the energy required to establish a particular flow pattern in a conditioned, precise volume of powder. This flow pattern is a downward anti-clockwise motion of the blade, generating a compressive, relatively high stress flow mode in the powder. The BFE is calculated from the work done in moving the blade through the powder from the top of the vessel to the bottom, i.e. during the downward traverse.
In the present instance, the basic flow energy was measured using a FT4 powder rheometer from Freeman Technology under the following conditions: vessel size: 25 mm; standard Program Name: 25 mm_1C_Split_1 T; Starting accessory: 23.5 mm blade; Vessel: 25 mm×25 mL Split Vessel. The results were plotted in FIG. 9.

[4] = Laser diffraction particle size measurement of particles of reference example 1 (Example 4); format: physicochemical; conditions: laser light diffraction, after 240 seconds sonication, FIG. 7
Excerpt: For the measurement, a Sympatec HELOS device with a focal length of 100 mm from Sympatec GmbH, Germany, equipped with a wet dispersion device Cuvette from Sympatec GmbH, Germany was used. The test substance was dispersed in white spirit, Brenntag Schweizerhall AG, Switzerland (catalog number 12200-150) using a dispersing aid (e.g. Statsafe™ 6000, INNOSPEC Limited, ca. 1% in the white spirit).
The particles were mixed intensively, e.g. on a vortex mixer, in order to wet the substance thoroughly and to form a smooth and homogeneous paste. The paste was diluted with the white spirit to a final volume of several milliliters and the stock dispersion was mixed again.
The test dispersion was prepared by diluting of the stock dispersion with white spirit for an appropriate optical concentration and the cumulative volume distribution was determined using a laser light diffraction instrument in accordance with the instruction manual. Measurements were made before sonication and after sonication for up to 600 seconds. The parameters were set as follows: 50% amplitude at the ultrasonication device USGD-100 from Telsonic AG, and a measuring duration of about 20 seconds. The measurement was carried out twice.
The particle sizes at the undersize values of 10%, 50% and 90% (x10, x50, x90) were evaluated from the cumulative volume distribution after 240 seconds sonication. This was determined to be representative of the primary particle sizes.

[5] = Compressibility measurement (FT-4 powder rheometer); format: physicochemical; conditions: measured at 15 kPa normal stress
Excerpt: Compressibility is a measure of how density changes as a function of applied normal stress. By definition, compressibility is the percent change in volume after compression (%). The measurements were made using a FT-4 powder rheometer from Freeman technology. N-(5-cyano-4-((2-methoxyethyl)amino)pyridin-2-yl)-7-formyl-6-((4-methyl-2-oxopiperazin-1-yl)methyl)-3,4-dihydro-1,8-naphthyridine-1(2H)-carboxamide particles obtained by the process of the present invention and particles obtained by the process described in PCT/IB2014/065585 were placed in a vessel and a vented piston was used to compress the particles. The vented piston is designed such that the compression face is constructed from a woven stainless steel mesh and allows the entrained air in the powder to escape uniformly across the surface of the powder bed. A normal stress was applied in 8 sequential compression steps beginning at 0.5 kPa and ending at 15 kPa. In each step, the normal stress was held constant for 60 seconds and the compressibility was automatically calculated as a percentage change in volume. The results were plotted in FIG. 10. The compressibility percentage measured at 15 kPa was 54.14% and 54.63% for particles of the present invention. For the particles obtained by the process described in PCT/IB2014/065585, the compressibility percentage measured at 15 kPa was 49.93%.

[6] = Wall friction angle measurement (FT-4 powder rheometer, stainless steel); format: physicochemical; conditions: 316 Stainless Steel discs, 1.2 microns average roughness
Excerpt: The wall friction test method has been developed to assess the interaction between the drug substance and stainless steel. The apparatus used is a FT-4 powder rheometer from Freeman technology.
N-(5-cyano-4-((2-methoxyethyl)amino)pyridin-2-yl)-7-formyl-6-((4-methyl-2-oxopiperazin-1-yl)methyl)-3,4-dihydro-1,8-naphthyridine-1(2H)-carboxamide particles obtained by the process of the present invention and particles obtained by the process described in PCT/IB2014/065585 were placed in a vessel containing the sample and a wall friction head to induce both vertical and rotational stresses. The powder sample is prepared by conditioning and then pre-consolidation using the standard FT4 blade and vented piston.
The wall friction head equipped with 1.2 microns average roughness of 316 Stainless Steel discs moves downwards to the surface of the sample and induces a normal stress as the disc contacts the top of the sample. The head continues to move downwards until the required normal stress is established. […] The torque required to maintain this rotational is measured which enables a “steady-state” shear stress to be calculated. […] A series of shear stress values is measured for a range of target applied stresses. […] The wall friction angle is then calculated by drawing a best fit line through the data points on the graph, and measuring the angle subtended between this best fit line and the horizontal. […]

SMILES	IC50 [1] [nM]	IC50 [2] [nM]	basic flow energy [3] [mJ]	median particle size (x50 or d50) [4]	particle size x10 or d10 [4]	particle size x90 or d90 [4]	basic flow energy ([3]; listed as particles obtained by the process described in PCT/IB2014/065585) [mJ]	compressibility percentage [5] [%]	wall friction angle [6] [°]
COCCNc1cc(NC(=O)N2CCCc3cc(CN4CCN(C)CC4=O)c(C=O)nc32)ncc1C#N [Example 1, N-(5-cyano-4-((2-methoxyethyl)amino)pyridin-2-yl)-7-formyl-6-((4-methyl-2-oxopiperazin-1-yl)methyl)-3,4-dihydro-1,8-naphthyridine-1(2H)-carboxamide in citric acid salt form 1:1]	12	60.9	65.07						
COCCNc1cc(NC(=O)N2CCCc3cc(CN4CCN(C)CC4=O)c(C=O)nc32)ncc1C#N.O=C(O)CC(O)(CC(=O)O)C(=O)O [Example 1a, N-(5-cyano-4-((2-methoxyethyl)amino)pyridin-2-yl)-7-formyl-6-((4-methyl-2-oxopiperazin-1-yl)methyl)-3,4-dihydro-1,8-naphthyridine-1(2H)-carboxamide in citric acid form (1:1)]			39.17						
COCCNc1cc(NC(=O)N2CCCc3cc(CN4CCN(C)CC4=O)c(C=O)nc32)ncc1C#N.O=C(O)CC(O)(CC(=O)O)C(=O)O [Reference Example 1, N-(5-cyano-4-((2-methoxyethyl)amino)pyridin-2-yl)-7-formyl-6-((4-methyl-2-oxopiperazin-1-yl)methyl)-3,4-dihydro-1,8-naphthyridine-1(2H)-carboxamide in citric acid form (1:1)]				about 3 microns	about 1 micron	about 7 micron	185.20	49.93	43.18

Source: patent US9802917B2, “Particles of N-(5-cyano-4-((2-methoxyethyl)amino)pyridin-2-yl)-7-formyl-6-((4-methyl-2-oxopiperazin-1-yl)methyl)-3,4-dihydro-1,8-naphthyridine-1(2H)-carboxamide” (Novartis AG, priority 2015, dated 2017)
